Read-outs that look alike come from different tables or passages of the source.
What was measured:
Format in all cases: in vivo
wheat crop [1] = conditions: seed treatment, average of 4 replications
Description: (§1) Mode of application for herbicides was spray and they were applied to soil after sowing of untreated seeds or seeds treated with safeners.
as §1

Lolium multiflorum = assay: % weed control of Lolium multiflorum, Propisochlor alone or with safener sprayed to soil; parameters: concentration or dose not given beside the values; conditions: spray to soil, average of 4 replications; for % Weed Control 7 DAA: 7 days after administration; for % Weed Control 14 DAA: 14 days after administration; for % Weed Control 21 DAA: 21 days after administration; for % Weed Control 28 DAA: 28 days after administration; for % Weed Control 35 DAA: 35 days after administration
Protocol: (§2) Experiments were carried out to evaluate the phytotoxicity, effect on plant height and effect on number of plants standing after treatments with combinations of one or more Chloroacetanilide herbicides with one or more safeners.
Below table gives summary of the formulation details and application details of Propisochlor and Mefenpyr-diethyl, Isoxadifen-ethyl and Cloquintocet-mexyl that were used in combination with Propisochlor for treatments. Application method was spray and applications were made to soil.
Below table gives summary of the formulation details and application details of Propisochlor and Dichlormid, Fenclorim, Benoxacor, Flurazole and Fluxofenim that were used in combination with Propisochlor for treatments. Application method was spray and applications were made to soil.
Below table gives summary of % weed control shown by untreated check, Propisochlor alone and combination of Propisochlor with Mefenpyr-diethyl, Isoxadifen-ethyl and Cloquintocet-mexyl at different application rates. % weed control was checked for weed Lolium multiflorum.
Below table gives summary of % weed control shown by untreated check, Propisochlor alone and combination of Propisochlor with Dichlormid, Fenclorim, Benoxacor, Flurazole and Fluxofenim at different application rates. % weed control was checked for weed Lolium multiflorum.

wheat crop [2] = conditions: spray to soil; for % Phytotoxicity 7 DAA: 7 days after administration; for % Phytotoxicity 7 DAA / % Phytotoxicity 14 DAA / % Phytotoxicity 21 DAA / % Phytotoxicity 28 DAA / % Phytotoxicity 35 DAA: average of 4 replications; for % Phytotoxicity 14 DAA: 14 days after administration; for % Phytotoxicity 21 DAA: 21 days after administration; for % Phytotoxicity 28 DAA: 28 days after administration; for % Phytotoxicity 35 DAA: 35 days after administration; for Plants Standing: untreated check 8.0 (Table 5) / 8.3 (Table 6)
Protocol: as §2
(§3) Application method was spray and applications were made to soil.
as §3

Row | SMILES | % Weed Control 7 DAA (Lolium multiflorum) [%] | % Weed Control 14 DAA (Lolium multiflorum) [%] | % Weed Control 21 DAA (Lolium multiflorum) [%] | % Weed Control 28 DAA (Lolium multiflorum) [%] | % Weed Control 35 DAA (Lolium multiflorum) [%] | % Phytotoxicity 7 DAA (wheat crop [2]) [%] | % Phytotoxicity 14 DAA (wheat crop [2]) [%] | % Phytotoxicity 21 DAA (wheat crop [2]) [%] | % Phytotoxicity 28 DAA (wheat crop [2]) [%] | % Phytotoxicity 35 DAA (wheat crop [2]) [%] | Plants Standing (wheat crop [2]) | other results
1 | N#Cc1nn(-c2c(Cl)cc(C(F)(F)F)cc2Cl)c(N)c1[S+]([O-])C(F)(F)F (stereo not shown) [Treatment 1b] |  |  |  |  |  |  |  |  |  |  |  | Plant height 15 DAA (wheat crop [1]; Table 11, wheat crop, 15 DAA): 10.8; Standing Plants 15 DAA (wheat crop [1]; Table 11, wheat crop, 15 DAA): 22.5; Plant height 29 DAA (wheat crop [1]; Table 11, wheat crop, 29 DAA): 10.8; Standing Plants 29 DAA (wheat crop [1]; Table 11, wheat crop, 29 DAA): 33.8; % Phytotoxicity 7 DAA (wheat crop [1]; wheat crop, Propisochlor sprayed to soil after sowing, 7 DAA): 0%; % Phytotoxicity 14 DAA (wheat crop [1]; wheat crop, Propisochlor sprayed to soil after sowing, 14 DAA): 0%; % Phytotoxicity 21 DAA (wheat crop [1]; wheat crop, Propisochlor sprayed to soil after sowing, 21 DAA): 0%; % Phytotoxicity 28 DAA (wheat crop [1]; wheat crop, Propisochlor sprayed to soil after sowing, 28 DAA): 0%; % Phytotoxicity 35 DAA (wheat crop [1]; wheat crop, Propisochlor sprayed to soil after sowing, 35 DAA): 0%
2 | CCc1cccc(C)c1N(COC(C)C)C(=O)CCl [Treatment 2a] | 100 | 100 | 100 | 100 | 100 | 98.0 | 99.0 | 99.5 | 99.5 | 99.0 | 0.5 | 
3 | N#Cc1nn(-c2c(Cl)cc(C(F)(F)F)cc2Cl)c(N)c1[S+]([O-])C(F)(F)F (stereo not shown) [Treatment 9b] |  |  |  |  |  |  |  |  |  |  |  | Plant height 15 DAA (wheat crop [1]; Table 12, 15 DAA): 23.3; Standing Plants 15 DAA (wheat crop [1]; Table 12, 15 DAA): 10.8; Plant height 29 DAA (wheat crop [1]; Table 12, 29 DAA): 34.3; Standing Plants 29 DAA (wheat crop [1]; Table 12, 29 DAA): 10.8; % Phytotoxicity 8 DAA (wheat crop [1]; wheat crop, Propisochlor sprayed to soil after sowing, 8 DAA): 0%; % Phytotoxicity 15 DAA (wheat crop [1]; wheat crop, Propisochlor sprayed to soil after sowing, 15 DAA): 0%; % Phytotoxicity 22 DAA (wheat crop [1]; wheat crop, Propisochlor sprayed to soil after sowing, 22 DAA): 0%; % Phytotoxicity 29 DAA (wheat crop [1]; wheat crop, Propisochlor sprayed to soil after sowing, 29 DAA): 0%; % Phytotoxicity 36 DAA (wheat crop [1]; wheat crop, Propisochlor sprayed to soil after sowing, 36 DAA): 0%
4 | CCc1cccc(C)c1N(COC(C)C)C(=O)CCl [Treatment 10a] | 100.0 | 100.0 | 100.0 | 99.3 | 99.0 | 99.5 | 100 | 100 | 100 | 100 | 0.0 | 
